According to patent US20120071493A1, “SUBSTITUTED 8-SULFONYL-2,3,4,5-TETRAHYDRO-1H-GAMMA-CARBOLINES, LIGANDS AND PHARMACEUTICAL COMPOSITION; METHOD FOR THE PRODUCTION AND USE OF SAME” (priority 2009, published 2012):

Tests used:
male mice of BALB/c line = test: Mice Behavior in the Elevated Plus Maze test; assay type: in vivo; settings: 0.05 mg/kg and 0.2 mg/kg intraperitoneally
Procedure: The experiments were carried out in aged male mice of BALB/c line weighing about 25 g. Animals were housed 5-7 per cage with water and food available. None of animals was acquainted with experimental set-up before. Each experimental group included 8 animals.
The procedure used was described earlier by Lister (Lister R. G. The use of a plus-maze to measure anxiety in the mouse. Psychopharmacology, 1987; 92:180-185). Plexiglass set-up consisted of two opened arms of 30×5 cm size and two closed arms of 30×5×15 cm size was used. Side arms were closed with transparent plexiglass and were connected with central zone via platform of 5×5 cm size. Opened arms, central platform and floor were made of black plexiglass. The set-up was mounted on a metallic base which was placed 38.5 cm above floor level.
Animals were injected intraperitoneally with placebo, Buspirone (5 mg/kg, 30 minutes before training), Lorazepam (0.05 mg/kg, 60 minutes before training) or with one of the compounds of the general formula 1, for example, compound 1.1.1(4).HCl or compound 1.2.1(3).HCl in doses 0.05 mg/kg and 0.2 mg/kg. Buspirone and Lorazepam were introduced in maximal effective dose, at which side sedative effect and general decrease of exploratory activity (number of arm entries during the test) were not observed yet.
Each mouse was placed in maze center with its head towards the opened arm. Over a period of 5 minutes the sequence and duration of arm entries were registered by means of computer program. Criterion for entry is location of all animal's paws inside the arm at the same time. Index of preference was calculated as ratio of the time spent by animal in opened arms as well as the number of entries into opened arms to the total time spent by it in opened and closed arms or, respectively, to the whole number of entries to arms of both types. The number of defecations left by mouse was regarded as additional parameter characterizing anxiety state.

[1] = molecular target: T1, recombinant human 5-HT6 receptor (Homo sapiens, UniProt P50406); test: Antagonistic activity towards serotonin 5-HT6 receptors, cAMP cell function experiment; assay type: cell-based; settings: HEK 293 cells expressing recombinant human 5-HT6 receptor; cAMP response to 10 μM serotonin; read-out: IC50, ability to block serotonin 5-HT6 receptors in the setting of cell function experiments
T1 construct: host or cells: HEK 293 cells with tetracycline-induced T-Rex system (Invitrogen)
Procedure: Determination of antagonistic activity of substituted 8-sulfonyl-2,3,4,5-tetrahydro-1H-γ-carbolines of the general formula 1 towards serotonin 5-HT6 receptors. HEK 293 cells with tetracycline-induced T-Rex system (Invitrogen, USA) consistently expressing recombinant human 5-HT6 receptor, production of Etogen Scientific (USA), were used. The cells were grown in DMEM/10% FBS/1% AAS medium with Blasticidine S and Zeocin (both—Invitrogen, USA). According to the method worked up by the producer of T-Rex system tetracycline hydrochloride was added to the medium with the cells for the purpose of activation of 5-HT6 receptor expression. The cells were embedded in 96-well plates (30,000-40,000 cells per well) and incubated in 5%-CO2 incubator at 37° C. for 24 hs. Before experiments cells medium was replaced by Hank's balanced salt solution (HBSS), comprising 0.137 M NaCl, 5.4 mM KCl, 0.25 mM Na2HPO4, 0.44 mM KH2PO4, 1.3 mM CaCl2, 1.0 mM MgSO4, 5 mM HEPES (pH 7.4), 0.05% BSA and 1 mM IBMX. The tested compounds of general formula 1 were added to the cells in various concentrations. After incubation of the cells for 15 min at room temperature serotonin was added to them up to final concentration of 10 μM and incubation was continued for 30 min. The newly formed cAMP was determined by reagent kit LANCE cAMP Kit, according to the method described by the kit manufacturer […] (PerkinElmer, CIIIA). […] The data given testify that novel γ-carbolines of the general formula 1 are effective serotonin 5-HT6 receptor antagonists. Some of γ-carbolines of the general formula 1 have IC50<0.5 μM in the setting of cell function experiments (IC50—antagonist concentration blocking 5-HT6 receptors for 50%).

T1 sequence (P50406 whole entry): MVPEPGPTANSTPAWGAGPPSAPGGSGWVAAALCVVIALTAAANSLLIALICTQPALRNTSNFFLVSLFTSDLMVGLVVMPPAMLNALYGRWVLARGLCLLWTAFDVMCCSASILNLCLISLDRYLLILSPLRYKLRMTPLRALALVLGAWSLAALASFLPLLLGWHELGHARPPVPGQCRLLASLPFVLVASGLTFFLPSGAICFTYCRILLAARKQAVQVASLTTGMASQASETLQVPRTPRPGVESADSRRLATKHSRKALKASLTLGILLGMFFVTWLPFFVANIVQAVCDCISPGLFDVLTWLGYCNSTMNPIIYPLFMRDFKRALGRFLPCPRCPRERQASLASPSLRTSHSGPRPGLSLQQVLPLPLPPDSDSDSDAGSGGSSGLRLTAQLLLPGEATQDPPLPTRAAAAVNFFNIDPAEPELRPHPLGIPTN

IC50 [1]	Compound	anxiolytic effect in elevated plus maze (male mice of BALB/c line)
78 nM	CN1CCc2c(c3cc(S(=O)(=O)c4ccccc4)ccc3n2C)C1.Cl [1.1.1(4)•HCl, 2,5-dimethyl-8-(phenylsulfonyl)-2,3,4,5-tetrahydro-1H-γ-carboline hydrochloride]	well-marked anxiolytic effect
15 nM	CN1CCc2[nH]c3ccc(S(=O)(=O)Nc4cccc(F)c4)cc3c2C1.Cl [1.2.1(3)•HCl, 2-methyl-2,3,4,5-tetrahydro-1H-γ-carboline-8-sulfonic acid 3-fluorophenyl amide hydrochloride]	well-marked anxiolytic effect
